The subject of one assay is Rats. Briefly: Conditioned avoidance behavior in rats. The class given is in vivo, rat. The settings on record: screening dose 3.0 mg/kg s.c. 30 min before session. From the text:
In a conditioned avoidance test, animals learn to respond during a conditioned stimulus in order to avoid mild shock presentation. A response during the conditioned stimulus is termed an avoidance respone, a response during shock is termed an escape response; a response failure is when the animal fails to respond during either the conditioned stimlus or the shock presentation and is indicative of motor impairment. […] Antipsychotic drugs decrease the percentage of avoidance responses without interfering with the ability of the animal to respond since the animals do emit escape responses. The percentage of response failures is considered a measure of motor impairment.
Rats were required to press a response lever in an experimental chamber in order to avoid or escape foot-shock. Each experimental session consisted of 50 trials. During each trial, the chamber was illuminated and a tone presented for a maximum of 10 sec. A response during the tone immediately terminated the tone and the houselight, ending the trial. In the absence of a response during the tone alone, tone+foot-shock (2.0 mA) was presented for a maximum of 10 sec. A response during shock presentation immediately terminated the shock, the tone and the houselight, ending the trial.
For drug screening, a dose of 3.0 mg/kg was administered s.c. 30 min before the start of the experimental session.

In a further assay the target is muscarinic receptors. Nature of the assay: 3H-oxotremorine-M binding assay. The settings on record: 3 nM 3H-oxotremorine-M, rat cerebral cortical membranes, 15 min 25° C.; read-out: Inhibition of 3H-Oxo. How it is done: Each compound was tested to determine the affinity of the compound for the muscarinic receptors using the following procedure.
For each in vitro binding, male Sprague-Dawley (Harlan Sprague-Dawley, Indianapolis, Ind.) rats weighing from about 100 to about 150 grams each were sacrificed by decapitation. The brains were quickly removed and the cerebral cortex were dissected from the brain. The cerebral cortex tissue was homogenized in 10 volumes of 0.32 M sucrose and […] about 10 minutes at about 1000 x g. The supernatant was centrifuged at about 12,000 x g for about 10 minutes and the resulting pellet was resuspended in 20 mM tris-Cl, pH 7.4. The resuspended pellet was centrifuged again for about 10 minutes at about 50,000 x g. The resulting homogenate was preincubated for about 10 minutes at about 25° C. and centrifuged again for about 10 minutes at about 50,000 x g. The pellet was resuspended at 1 gram of pellet per 3 ml of buffer and frozen at about -80° C. until used.
The aforementioned homogenates mixture was incubated for about 15 minutes at about 25° C. and then the homogenates were filtered through glass filters (Whatman, GF/C) with vacuum. The filters were washed 3 times with about 2 ml of cold tris-Cl buffer, and placed in scintillation vials containing about 10 ml of scintillation fluid (Ready Protein+, Beckman, Fullerton, Calif.). Radioactivity trapped on the filters was determined by liquid scintillation spectrometry. Nonspecific binding was determined using 1 μM atropine. […] DeLean, A. et al. Am.

Counter-ions that a name gives are not always drawn.

Consider `CC(C)CCCSc1nsnc1[C@H]1CN2CCC[C@H]1C2` (relative stereo) [Compound 76, Exo-6-(3-isohexylthio-1,2,5-thiadiazol-4-yl)-1-azabicyclo[3.2.1]octane oxalate], for which, in the assay with Rats, the “Conditioned Avoidance % Avoidance Responses” value was 28%. Further, the IC50 on muscarinic receptors was determined as 7.7 nM.
Turning to `CCOc1nsnc1C1CN2CCC1CC2.O=C(O)/C=C/C(=O)O` (stereo not drawn) [Compound 9, 3-(3-Ethoxy-1,2,5-thiadiazol-4-yl)-1-azabicyclo[2.2.2]octane fumarate], in the assay with Rats, the “Conditioned Avoidance % Avoidance Responses” value is reported as 65%. Moreover, at muscarinic receptors, the IC50 is 2.1 nM.
Taken in the same sequence, the figures for `CCCOc1nsnc1[C@H]1CN2CCC[C@H]1C2` (relative stereo) [Compound 119, Exo-6-(3-propoxy-1,2,5-thiadiazol-4-yl)-1-azabicyclo[3.2.1]octane oxalate] were 29% and 0.9 nM.
Taken in the same sequence, the figures for `CCSc1nsnc1[C@H]1CN2CCC[C@H]1C2` (relative stereo) [Compound 32, Exo-6-(3-ethylthio-1,2,5-thiadiazol-4-yl)-1-azabicyclo[3.2.1]octane oxalate] were 46% and 1.3 nM.
Taken in the same sequence, the figures for `N#CCSc1nsnc1C1CN2CCC1CC2.O=C(O)C(=O)O` (stereo not drawn) [Compound 103, 3-(3-Cyanomethylthio-1,2,5-thiadiazol-4-yl)-1-azabicyclo[2.2.2]octane oxalate] were 51% and 2.7 nM.
`N#Cc1ccc(CSc2nsnc2[C@H]2CN3CCC[C@H]2C3)cc1` (relative stereo) [Compound 82, Exo-6-(3-(4-cyanobenzylthio)-1,2,5-thiadiazol-4-yl)-1-azabicyclo[3.2.1]octane oxalate]: the “Conditioned Avoidance % Avoidance Responses” value in the assay with Rats is given as 24%. Besides, on muscarinic receptors, the IC50 was 1.3 nM.
Consider `CCCCSc1nsnc1C1CN2CCC1CC2.O=C(O)/C=C/C(=O)O` (stereo not drawn) [Compound 13, 3-(3-Butylthio-1,2,5-thiadiazol-4-yl)-1-azabicyclo[2.2.2]octane fumarate], for which the “Conditioned Avoidance % Avoidance Responses” value in the assay with Rats worked out at 18%. Moreover, the IC50 on muscarinic receptors worked out at 1.9 nM.
Taken in the same sequence, the figures for `CCCSc1nsnc1[C@H]1CN2CCC[C@H]1C2` (relative stereo) [Compound 58, Exo-6-(3-propylthio-1,2,5-thiadiazol-4-yl)-1-azabicyclo[3.2.1]octane oxalate] were 41% and 0.8 nM.
Turning to `FC(F)(F)CCCSc1nsnc1C1CN2CCCC1C2` (single isomer, unassigned; (+)) [Compound 167, (+)-Exo-6-(3-(4,4,4-trifluorobutylthio)-1,2,5-thiadiazol-4-yl)-1-azabicyclo-[3.2.1]octane oxalate], in the assay with Rats (3 mg/kg), the “Conditioned Avoidance % Avoidance Responses” value was 56%. The IC50 on muscarinic receptors was 0.76 nM.
Consider `CCCCOc1nsnc1C1CN2CCC1CC2.O=C(O)C(=O)O` (stereo not drawn) [Compound 46, 3-(3-Butoxy-1,2,5-thiadiazol-4-yl)-1-azabicyclo[2.2.2]octane oxalate], for which the “Conditioned Avoidance % Avoidance Responses” value with Rats turned out to be 30%. In addition, the IC50 on muscarinic receptors came to 1.6 nM.
Taken in the same sequence, the figures for `Cc1nnc(SCCCCSc2nsnc2C2CN3CCC2CC3)s1` (stereo not drawn) [Compound 107, oxalate] were 52% and 1 nM.
Taken in the same sequence, the figures for `CCOc1nsnc1[C@H]1CN2CCC[C@H]1C2` (relative stereo) [Compound 19, Exo-6-(3-ethoxy-1,2,5-thiadiazol-4-yl)-1-azabicyclo[3.2.1]octane oxalate] were 73% and 1.2 nM.
Taken in the same sequence, the figures for `c1ccc(OCCSc2nsnc2[C@H]2CN3CCC[C@H]2C3)cc1` (relative stereo) [Compound 133, Exo-6-(3-(2-phenoxyethylthio)-1,2,5-thiadiazol-4-yl)-1-azabicyclo[3.2.1]octane oxalate] were 1% and 1.3 nM.
For the compound `CSc1nsnc1C1CN2CCC1CC2.O=C(O)C(=O)O` (stereo not drawn) [Compound 131, 3-(3-Methylthio-1,2,5-thiadiazol-4-yl)-1-azabicyclo[2.2.2]octane oxalate], the “Conditioned Avoidance % Avoidance Responses” value in the assay on Rats is 53%. The IC50 at muscarinic receptors was found to be 2.8 nM.
`CCCCOc1nsnc1[C@H]1CN2CCC[C@H]1C2` (relative stereo) [Compound 120, Exo-6-(3-butoxy-1,2,5-thiadiazol-4-yl)-1-azabicyclo[3.2.1]octane oxalate]: the “Conditioned Avoidance % Avoidance Responses” value in the assay on Rats came to 27%. Besides, the IC50 at muscarinic receptors was 0.9 nM.
Take `CCCSc1nsnc1C1CN2CCCC1C2` (single isomer, unassigned) [Compound 114, (+)-Exo-6-(3-propylthio-1,2,5-thiadiazol-4-yl)-1-azabicyclo[3.2.1]octane (-) D-tartrate]: in the assay with Rats (3 mg/kg), the “Conditioned Avoidance % Avoidance Responses” value turned out to be 39%. Besides, the IC50 on muscarinic receptors is 0.45 nM.
On to `CCCCCCOc1nsnc1[C@H]1CN2CCC[C@H]1C2` (relative stereo) [Compound 122, Exo-6-(3-hexyloxy-1,2,5-thiadiazol-4-yl)-1-azabicyclo[3.2.1]octane oxalate], for which the “Conditioned Avoidance % Avoidance Responses” value in the assay with Rats was found to be 1%. Also, the IC50 on muscarinic receptors worked out at 2.1 nM.
Taken in the same sequence, the figures for `CSc1nsnc1[C@H]1CN2CCC[C@H]1C2` (relative stereo) [Compound 74, Exo-6-(3-methylthio-1,2,5-thiadiazol-4-yl)-1-azabicyclo[3.2.1]octane oxalate] were 22% and 1.4 nM.
Take `CCCCCCSc1nsnc1[C@H]1CN2CCC[C@H]1C2` (relative stereo) [Compound 29, Exo-6-(3-hexylthio-1,2,5-thiadiazol-4-yl)-1-azabicyclo[3.2.1]octane oxalate]: the “Conditioned Avoidance % Avoidance Responses” value with Rats is listed as 29%. In addition, the IC50 at muscarinic receptors was determined as 1.2 nM.
Turning to `CCCCSc1nsnc1C1CN2CCCC1C2` (single isomer, unassigned) [Compound 112, (+)-Exo-6-(3-butylthio-1,2,5-thiadiazol-4-yl)-1-azabicyclo[3.2.1]octane (-) D-tartrate], the “Conditioned Avoidance % Avoidance Responses” value in the assay with Rats (3 mg/kg) came to 2%. For the same compound, on muscarinic receptors, the IC50 is 0.6 nM.
For the compound `CC(C)CCCSc1nsnc1[C@H]1CN2CCC[C@H]1C2` [Compound 157, (+)-Exo-(5R,6R)-6-(3-isohexylthio-1,2,5-thiadiazol-4-yl)-1-azabicyclo[3.2.1]-octane (+) L-tartrate], the “Conditioned Avoidance % Avoidance Responses” value in the assay on Rats is 12%. For the same compound, on muscarinic receptors, the IC50 was 10 nM.
Turning to `FC(F)(F)CCCSc1nsnc1C1CN2CCCC1C2` (single isomer, unassigned; (-)) [Compound 130, (-)-Exo-6-(3-(4,4,4-trifluoro-1-butylthio)-1,2,5-thiadiazol-4-yl)-1-azabicyclo[3.2.1]octane oxalate], the “Conditioned Avoidance % Avoidance Responses” value with Rats (3 mg/kg) is 43%. Also, on muscarinic receptors, the IC50 was 1.8 nM.
For the compound `CCSc1nsnc1C1CN2CCC1CC2.O=C(O)C(=O)O` (stereo not drawn) [Compound 52, 3-(3-Ethylthio-1,2,5-thiadiazol-4-yl)-1-azabicyclo[2.2.2]octane oxalate], the “Conditioned Avoidance % Avoidance Responses” value with Rats is 63%. At muscarinic receptors, the IC50 was 1.8 nM.
Regarding `CCCSc1nsnc1C1CN2CCC1CC2.O=C(O)C(=O)O` (stereo not drawn) [Compound 53, 3-(3-Propylthio-1,2,5-thiadiazol-4-yl)-1-azabicyclo[2.2.2]octane oxalate], the “Conditioned Avoidance % Avoidance Responses” value in the assay on Rats is reported as 41%. At muscarinic receptors, the IC50 is 0.9 nM.
Taken in the same sequence, the figures for `CC(C)CCCSc1nsnc1[C@@H]1CN2CCC[C@@H]1C2` [Compound 158, (-)-Exo-6-(3-isohexylthio-1,2,5-thiadiazol-4-yl)-1-azabicyclo[3.2.1]octane oxalate] were 47% and 10 nM.
`O=C(O)/C=C/C(=O)O.c1csc(CCCSc2nsnc2C2CN3CCC2CC3)c1` (stereo not drawn) [Compound 104, 3-(3-(3-(2-Thienyl)propylthio)-1,2,5-thiadiazol-4-yl)-1-azabicyclo[2.2.2]octane fumarate]: the “Conditioned Avoidance % Avoidance Responses” value in the assay on Rats is on record as 24%. In addition, the IC50 on muscarinic receptors was determined as 2.6 nM.
Take `CCCSc1nsnc1C1CN2CCCC1C2` (single isomer, unassigned; (+)) [Compound 113, (+)-Exo-6-(3-propylthio-1,2,5-thiadiazol-4-yl)-1-azabicyclo[3.2.1]octane (+) L-tartrate]: the “Conditioned Avoidance % Avoidance Responses” value in the assay with Rats (3 mg/kg) is recorded as 19%. Further, the IC50 at muscarinic receptors was determined as 0.8 nM.
